The results in this text go back to patent publication US5652262A, “Hydroxamic acid derivatives as metalloproteinase inhibitors” (British Biotech Pharmaceutical, Ltd., priority 1993, dated 1997).

One data set deals with T1, collagenase (Homo sapiens, UniProt P03956).
T1 sequence (P03956 100-469): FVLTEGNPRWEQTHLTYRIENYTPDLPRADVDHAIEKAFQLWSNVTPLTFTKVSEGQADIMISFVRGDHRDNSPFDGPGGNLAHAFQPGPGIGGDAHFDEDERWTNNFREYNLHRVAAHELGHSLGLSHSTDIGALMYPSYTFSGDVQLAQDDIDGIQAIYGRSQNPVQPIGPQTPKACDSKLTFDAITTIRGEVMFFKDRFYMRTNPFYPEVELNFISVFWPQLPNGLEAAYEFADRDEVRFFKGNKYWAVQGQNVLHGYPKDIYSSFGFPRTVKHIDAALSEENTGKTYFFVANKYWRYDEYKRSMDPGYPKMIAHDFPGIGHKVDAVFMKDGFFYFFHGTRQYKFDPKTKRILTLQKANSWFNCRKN
Briefly: Inhibition of collagenase (procedure of Cawston and Barrett, acetylated 14C collagen). In kind it is biochemical. As to conditions: 37°, 16 hours, pH 7.5. How it is done:
The potency of compounds of the invention as inhibitors of collagenase was determined by the procedure of Cawston and Barrett, (Anal. Biochem., 99, 340-345, 1979), hereby incorporated by reference, whereby a 1 mM solution of the compound being tested, or a dilution thereof, was incubated at 37° for 16 hours with collagen and collagenase (buffered with 25 mM Hepes, pH 7.5 containing 5 mM CaCl2, 0.05% Brij 35 and 0.02% NaN3). The collagen was acetylated ^14 C collagen prepared by the method of Cawston and Murphy, (Methods in Enzymology, 80, 711, 1981), hereby incorporated by reference. The samples were centrifuged to sediment undigested collagen, and an aliquot of the radioactive supernatant removed for assay on a scintillation counter as a measure of hydrolysis.

Data set [1] can be described thus: Systemic blood concentration of inhibitor over 24 hours after oral dosing in rats, by collagenase inhibitory activity of blood extracts. As to conditions: 10 mg/kg in PBS/0.1% Tween 80 by gavage, male rats, 0.5-24 hours, drug plus any active metabolites, collagenase assay. In kind it is in vivo, rat. As for the experimental part: The biological efficacy of a compound of the invention in chronic disease states is a function of the systemic blood concentration maintained over time, and its intrinsic potency. These factors can be quantified as IC50.hrs (24 hrs), which parameter is defined as the total number of IC50 s in the blood over the 24 hours post dosing, the IC50 being defined as the concentration of the compound that reduces collagenase activity to 50% of its normal value.:
Test compounds were administered at 10 mg/kg in PBS/0.1% Tween 80 by gavage to 6 male rats (300 g) per treatment group. Blood samples were removed by tail venepuncture at 0.5, 1.0, 2.0, 6.0 and 24 hours post administration. 0.5 ml of blood was placed into 4.5 ml tubes containing 0.1 ml acid citrate dextrose (ACD) as anti-coagulant. For extraction, 3 ml methanol was added and the precipitated blood pelletted by centrifugation (30 min at 3000 rpm). A 2 ml aliquot of supernatant was removed and dried by lyophilisation. The extract was redissolved in 200 μl DMSO and a 10 μl aliquot assayed for collagenase inhibitory activity. The inhibitory activity in the extracts was determined using the collagenase assay described in Biological Example A above, and the concentration of inhibitor (that is drug plus any active metabolites) obtained by comparison with standard curves. […]

Data set [2] deals with rat adjuvant arthritis model. The experiment in a line: Rat adjuvant arthritis model, hindpaw oedema volume. The following applies: male Lewis rats, two doses of 10 mg/kg orally each day, day 13 to day 17. In kind it is in vivo. As for the experimental part:
The compound of Example 1 was tested in a rat adjuvant arthritis model.
Adjuvant arthritis was produced in male Lewis rats (Charles River) by a single intradermal injection of 0.75 mg of M. butyricum in light parafin oil (Freund's complete adjuvant) into the base of the tail. The "secondary" lesion occurs after a delay of 10 days, and is characterised by inflammation of the hindpaws. Hindpaw oedema volumes were measured plethysmographically by water displacement. Animals in the treated groups received two doses of 10 mg/kg of the test compound in PBS/0.1% Tween orally, each day, from day 13 to day 17. Results are reported as paw volume change from the volume measured on day 13.

Another data set has as its target stromelysin (Homo sapiens, UniProt P08254). The experiment in a line: Inhibition of stromelysin (procedure of Cawston et al, acetylated 14C casein). In kind it is biochemical. As to conditions: 37°, 16 hours, pH 7.5. How it is done:
The potency of compounds of the invention as inhibitors of stromelysin was determined by the procedure of Cawston et al, (Biochem. J., 195, 159-165, 1981), hereby incorporated by reference, whereby a 1 mM solution of the compound being tested, or a dilution thereof, was incubated at 37° for 16 hours with stromelysin and ^14 C acetylate casein (buffered with 25 mM Hepes, pH 7.5 containing 5 mM CaCl2, 0.05% Brij 35 and 0.02% NaN3). The casein was acetylated ^14 C casein prepared by the method of Cawston et al (ibid).

SMILES strings stand for the structures. pIC50: −log10 of the molar value.

stromelysin, sequence (P08254 100-477): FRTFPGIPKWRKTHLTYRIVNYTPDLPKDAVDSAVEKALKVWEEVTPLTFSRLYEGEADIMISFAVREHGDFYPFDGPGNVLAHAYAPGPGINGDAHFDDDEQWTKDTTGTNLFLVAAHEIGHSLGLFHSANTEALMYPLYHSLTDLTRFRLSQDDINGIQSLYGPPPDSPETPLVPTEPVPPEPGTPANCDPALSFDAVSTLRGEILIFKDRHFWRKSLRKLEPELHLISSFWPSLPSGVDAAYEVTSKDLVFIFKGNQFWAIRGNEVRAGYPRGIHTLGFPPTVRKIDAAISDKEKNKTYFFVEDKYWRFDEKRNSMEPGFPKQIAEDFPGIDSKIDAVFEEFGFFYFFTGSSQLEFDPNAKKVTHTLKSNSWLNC

On to `C=CC[C@H](C(=O)NO)[C@@H](CC(C)C)C(=O)N[C@@H](Cc1ccccc1)C(=O)NC` [Example 1, 3R-(2-Phenyl-1S-methylcarbamoyl-ethylcarbamoyl)-5-methyl-2S-2-propenyl-hexanohydroxamic acid], for which the pIC50 (usually −log10 of the IC50, conventionally taken in molar units) at collagenase was 8.00. Besides, the “AUC (IC50.hrs (24hrs))” value in data set [1] came out at 233 IC50.hrs. In data set [2] (Day 17), the “paw volume change, Day 17 (% relative to day 13)” value is 52%. In addition, the “paw volume change, Day 20 (% relative to day 13)” value in data set [2] (Day 20) stood at 65%.

For the molecule `C=CC[C@H](C(=O)NO)[C@@H](CC(C)C)C(=O)N[C@H](C(=O)NC)C(C)(C)C` [Example 5, 3R-(2,2-Dimethyl-1S-methylcarbamoyl-propylcarbamoyl)-5-methyl-2S-2-propenyl-hexanohydroxamic acid], the negative logarithm of the IC50 (pIC50) is 8.40 to 8.52 against collagenase and 7.10 against stromelysin. Further, the “AUC (IC50.hrs (24hrs))” value in data set [1] is 970 IC50.hrs.

Consider `C=CC[C@H](C(=O)NO)[C@@H](CC(C)C)C(=O)N[C@@H](Cc1ccccc1)C(=O)NCc1ccccc1` [Example 7, 3R-(2-Phenyl-1S-phenylmethylcarbamoyl-ethylcarbamoyl)-5-methyl-2S-2-propenyl-hexanohydroxamic acid], for which the results for the pIC50 on collagenase and against stromelysin were 8.00 and 8.30, respectively.
